# Test system: kynurenine production in IFN-γ-treated KATO-III cells
# Assay: Inhibitory activity on kynurenine production (Test Example 1)
# Format: cell-based
# Settings: Homo sapiens, IFN-γ treatment, culture for 96 hours, read-out: IC50 value, inhibition of kynurenine production
# Description: This assay was performed according to a method modified from the method described in the Journal of Biological Chemistry (J. Biol. Chem.), vol. 263, pp. 2041-2048 (1988). Culture of KATO-III derived from human gastric cancer cells was performed by use of RPMI 1640 (GIBCO, 11875) supplemented with 10 vol % FBS (GIBCO, 10091-148, lot. 665285). 1 μL of a DMSO solution of the test substance was diluted with 199 μL of the culture medium, and the diluted solution was added to wells of a 384 well plate (10 μL/well). Then, IFN-γ (Sigma, 1-3265) was added to the culture medium so that the concentration of IFN-γ was 31.25 ng/mL, and the KATO-III cells were suspended at 50,000 cells/ml, in the culture medium. 40 μL of the suspension was added to each well (2,000 cells/well), and culture of the KATO-III cells was performed at 37° C. under a 5% CO2 atmosphere for 96 hours. The final concentration of DMSO was limited to 0.1 vol % or less so that DMSO itself might not affect the kynurenine concentration measured by this assay. After the culture, 10 μL of a 30 w/v % aqueous trichloroacetic acid solution was added to each well, and incubation was performed at 65° C. for 30 minutes. The plate was centrifuged at 2,500×g for 5 minutes, and then 15 μL of the supernatant in each well was transferred into another 384 well plate. To each of the transferred supernatants, 15 μL of a 2 w/v % solution of p-dimethylaminobenzaldehyde in acetic acid was added, incubation was performed at 65° C. for 20 minutes, and then the absorbance at 480 nm was measured.
# [formula] Sample: the absorbance value of the well to which a DMSO solution containing the test substance was added and in which cells were treated with IFN-γ. Blank: the absorbance value of the well to which only DMSO, not the test substance was added and in which cells were treated with IFN-γ. Control: the absorbance value of the well to which only DMSO, not the test substance was added and in which cells were not treated with IFN-γ.
# In this assay, expression of IDO in KATO-III cells is induced by IFN-γ treatment and then kynurenine in the culture medium is quantified. It is known that the kynurenine concentration in a culture medium increases in proportion to the enzymatic activity of intracellular IDO (for example, the Journal of Biological Chemistry (J. Biol. Chem.), vol. 263, pp. 2041-2048 (1988)). […] It is known that kynurenine production is inhibited by IDO inhibitors (for example, the Journal of Clinical Investigation (J. Clin. Invest.), vol. 117, No. 5, pp. 1147-1154 […]), and thus it is expected that Compound (I) also has an inhibitory effect on IDO.
row,IC50,Compound
1,< 1000 nM,"O=S(=O)(Nc1nc2ccccc2nc1OC(C1CCCCC1)C(F)(F)F)c1cccc(Cl)c1Cl (centres unmarked) [Compound 102, 2,3-dichloro-N-[3-(1-cyclohexyl-2,2,2-trifluoroethoxy)-quinoxalin-2-yl]benzenesulfonamide]"
2,< 1000 nM,"Cn1c(C(Oc2nc3ccccc3nc2NS(=O)(=O)c2cccc(Cl)c2Cl)C(F)(F)F)cc2ccccc21 (centres unmarked) [Compound 103, 2,3-dichloro-N-{3-[2,2,2-trifluoro-1-(1-methyl-1H-indol-2-yl)ethoxy]quinoxalin-2-yl}benzenesulfonamide]"
3,< 1000 nM,"O=S(=O)(Nc1nc2ccccc2nc1OC(c1cc2ccccc2o1)C(F)(F)F)c1ccccc1Cl (centres unmarked) [Compound 104, 2-chloro-N-{3-[2,2,2-trifluoro-1-(benzofuran-2-yl)ethoxy]-quinoxalin-2-yl}benzenesulfonamide]"
4,< 1000 nM,"Cc1nc(C)c(C(Oc2nc3ccccc3nc2NS(=O)(=O)c2ccccc2Cl)C(F)(F)F)s1 (centres unmarked) [Compound 106, 2-chloro-N-{3-[2,2,2-trifluoro-1-(2,4-dimethylthiazol-5-yl)ethoxy]quinoxalin-2-yl}benzenesulfonamide]"
5,< 1000 nM,"Cc1ncsc1C(Oc1nc2ccccc2nc1NS(=O)(=O)c1ccccc1Cl)C(F)(F)F (centres unmarked) [Compound 107, 2-chloro-N-{3-[2,2,2-trifluoro-1-(4-methylthiazol-5-yl)-ethoxy]quinoxalin-2-yl}benzenesulfonamide]"
6,< 1000 nM,"CCn1cncc1C(Oc1nc2ccccc2nc1NS(=O)(=O)c1ccccc1Cl)C(F)(F)F (centres unmarked) [Compound 108, 2-chloro-N-{3-[2,2,2-trifluoro-1-(1-ethyl-1H-imidazol-5-yl)ethoxy]quinoxalin-2-yl}benzenesulfonamide]"
7,< 1000 nM,"O=S(=O)(Nc1nc2ccccc2nc1OC(c1ccco1)C(F)(F)F)c1ccccc1Cl (centres unmarked) [Compound 109, 2-chloro-N-{3-[2,2,2-trifluoro-1-(furan-2-yl)ethoxy]-quinoxalin-2-yl}benzenesulfonamide]"
8,< 1000 nM,"O=S(=O)(Nc1nc2ccccc2nc1OC(c1cnc(Cl)s1)C(F)(F)F)c1ccccc1Cl (centres unmarked) [Compound 110, 2-chloro-N-{3-[2,2,2-trifluoro-1-(2-chlorothiazol-5-yl)-ethoxy]quinoxalin-2-yl}benzenesulfonamide]"
9,< 1000 nM,"O=S(=O)(Nc1nc2ccccc2nc1OC(c1cncn1CC1CC1)C(F)(F)F)c1ccccc1Cl (centres unmarked) [Compound 111, 2-chloro-N-{3-[2,2,2-trifluoro-1-(1-cyclopropylmethyl-1H-imidazol-5-yl)ethoxy]quinoxalin-2-yl}benzenesulfonamide]"
10,< 1000 nM,"O=S(=O)(Nc1nc2ccccc2nc1OC(c1cn(CC2CC2)cn1)C(F)(F)F)c1ccccc1Cl (centres unmarked) [Compound 112, 2-chloro-N-{3-[2,2,2-trifluoro-1-(1-cyclopropylmethyl-1H-imidazol-4-yl)ethoxy]quinoxalin-2-yl}benzenesulfonamide]"

# Second part, the compound before the results:
row,Compound,IC50
1,"CC(C)(C(Oc1nc2ccccc2nc1NS(=O)(=O)c1ccccc1Cl)c1cccnc1)S(C)(=O)=O (centres unmarked) [Compound 80, 2-chloro-N-{3-[2-methanesulfonyl-2-methyl-1-(pyridin-3-yl)-propoxy]quinoxalin-2-yl}benzenesulfonamide]",< 1000 nM
2,"N#Cc1cccc(C(Oc2nc3ccccc3nc2NS(=O)(=O)c2ccccc2Cl)C(F)(F)F)c1 (centres unmarked) [Compound 82, 2-chloro-N-{3-[2,2,2-trifluoro-1-(3-cyanophenyl)ethoxy]-quinoxalin-2-yl}benzenesulfonamide]",< 1000 nM
3,"O=S(=O)(Nc1nc2ccccc2nc1OC(c1cccc(F)c1)C(F)(F)F)c1ccccc1Cl (centres unmarked) [Compound 83, 2-chloro-N-{3-[2,2,2-trifluoro-1-(3-fluorophenyl)ethoxy]-quinoxalin-2-yl}benzenesulfonamide]",< 1000 nM
4,"O=S(=O)(Nc1nc2ccccc2nc1OC(c1cccc(Cl)c1)C(F)(F)F)c1ccccc1Cl (centres unmarked) [Compound 84, 2-chloro-N-{3-[2,2,2-trifluoro-1-(3-chlorophenyl)ethoxy]-quinoxalin-2-yl}benzenesulfonamide]",< 1000 nM
5,"O=S(=O)(Nc1nc2ccccc2nc1OC(c1ccc(Cl)nc1)C(F)(F)F)c1ccccc1Cl (centres unmarked) [Compound 85, 2-chloro-N-{3-[2,2,2-trifluoro-1-(6-chloropyridin-3-yl)-ethoxy]quinoxalin-2-yl}benzenesulfonamide]",< 1000 nM
6,"O=S(=O)(Nc1nc2ccccc2nc1OC(c1ccc(Br)nc1)C(F)(F)F)c1ccccc1Cl (centres unmarked) [Compound 86, 2-chloro-N-{3-[2,2,2-trifluoro-1-(6-bromopyridin-3-yl)-ethoxy]quinoxalin-2-yl}benzenesulfonamide]",< 1000 nM
7,"Cc1nn(C)c(Cl)c1S(=O)(=O)Nc1nc2ccccc2nc1OC(c1cccnc1)C1(F)CCOCC1 (centres unmarked) [Compound 87, 5-chloro-1,3-dimethyl-N-{3-[4-fluorotetrahydropyran-4-yl-(pyridin-3-yl)methoxy]quinoxalin-2-yl}-1H-pyrazole-4-sulfonamide]",< 1000 nM
8,"Cc1noc(C)c1S(=O)(=O)Nc1nc2ccccc2nc1OC(c1cccnc1)C1(F)CCOCC1 (centres unmarked) [Compound 88, 3,5-dimethyl-N-{3-[4-fluorotetrahydropyran-4-yl(pyridin-3-yl)methoxy]quinoxalin-2-yl}isoxazole-4-sulfonamide]",< 1000 nM
9,"O=S(=O)(Nc1nc2ccccc2nc1OC(c1ccc(C2CC2)nc1)C(F)(F)F)c1ccccc1Cl (centres unmarked) [Compound 89, 2-chloro-N-{3-[2,2,2-trifluoro-1-(6-cyclopropylpyridin-3-yl)ethoxy]quinoxalin-2-yl}benzenesulfonamide]",< 1000 nM
10,"O=S(=O)(Nc1nc2ccccc2nc1OC1(c2cccnc2)CCOCC1)c1ccccc1Cl [Compound 90, 2-chloro-N-{3-{[4-(pyridin-3-yl)tetrahydropyran-4-yl]oxy}-quinoxalin-2-yl}benzenesulfonamide]",< 1000 nM
11,"CC(C)(Oc1nc2ccccc2nc1NS(=O)(=O)c1ccccc1Cl)c1cccnc1 [Compound 91, 2-chloro-N-{3-[1-methyl-1-(pyridin-3-yl)ethoxy]quinoxalin-2-yl}benzenesulfonamide]",1000 to 10000 nM
12,"O=S(=O)(Nc1nc2ccccc2nc1OC(c1ccc(N2CCCC2)nc1)C(F)(F)F)c1ccccc1Cl (centres unmarked) [Compound 93, 2-chloro-N-{3-{2,2,2-trifluoro-1-[6-(pyrrolidin-1-yl)-pyridin-3-yl]ethoxy}quinoxalin-2-yl}benzenesulfonamide]",< 1000 nM
13,"CCCS(=O)(=O)Nc1nc2ccccc2nc1OC(c1cccnc1)C1(F)CCOCC1 (centres unmarked) [Compound 94, N-{3-[4-fluorotetrahydropyran-4-yl(pyridin-3-yl)methoxy]-quinoxalin-2-yl}propane-1-sulfonamide]",< 1000 nM
14,"Cn1cc(C(Oc2nc3ccccc3nc2NS(=O)(=O)c2cccc(Cl)c2Cl)C(F)(F)F)cn1 (centres unmarked) [Compound 96, 2,3-dichloro-N-{3-[2,2,2-trifluoro-1-(1-methyl-1H-pyrazol-4-yl)ethoxy]quinoxalin-2-yl}benzenesulfonamide]",< 1000 nM
15,"Cn1cncc1C(Oc1nc2ccccc2nc1NS(=O)(=O)c1cccc(Cl)c1Cl)C(F)(F)F (centres unmarked) [Compound 97, 2,3-dichloro-N-{3-[2,2,2-trifluoro-1-(1-methyl-1H-imidazol-5-yl)ethoxy]quinoxalin-2-yl}benzenesulfonamide]",< 1000 nM
16,"O=S(=O)(Nc1nc2ccccc2nc1OC(c1cncs1)C(F)(F)F)c1cccc(Cl)c1Cl (centres unmarked) [Compound 98, 2,3-dichloro-N-{3-[2,2,2-trifluoro-1-(thiazol-5-yl)ethoxy]-quinoxalin-2-yl}benzenesulfonamide]",< 1000 nM
17,"O=S(=O)(Nc1nc2ccccc2nc1OC(c1nccs1)C(F)(F)F)c1cccc(Cl)c1Cl (centres unmarked) [Compound 99, 2,3-dichloro-N-{3-[2,2,2-trifluoro-1-(thiazol-2-yl)ethoxy]-quinoxalin-2-yl}benzenesulfonamide]",< 1000 nM
18,"O=S(=O)(Nc1nc2ccccc2nc1OC(c1cccs1)C(F)(F)F)c1cccc(Cl)c1Cl (centres unmarked) [Compound 100, 2,3-dichloro-N-{3-[2,2,2-trifluoro-1-(thiophen-2-yl)-ethoxy]quinoxalin-2-yl}benzenesulfonamide]",< 1000 nM
19,"O=S(=O)(Nc1nc2ccccc2nc1OC(c1ccsc1)C(F)(F)F)c1cccc(Cl)c1Cl (centres unmarked) [Compound 101, 2,3-dichloro-N-{3-[2,2,2-trifluoro-1-(thiophen-3-yl)-ethoxy]quinoxalin-2-yl}benzenesulfonamide]",< 1000 nM

# — patent publication US8673908B2, “Kynurenine production inhibitor” (Kyowa Hakko Kirin Co., Ltd., priority 2008, dated 2014)
